# Reference: US20080039410A1, “Inositol 1,4,5-Trisphosphate Receptor Mutants and Uses Thereof” (priority 2004, published 2008)
# Entries after “also recorded” stand apart in the source; their conditions may differ.
# What was measured:
# Type in all cases: cell-based, rat
# S2+ InsP3R-1 = experiment: Potentiation of CCh-induced Ca2+ release after PKG activation (8-Br cGMP), S2+ InsP3R-1 constructs in DT-40 3ko cells; settings: for effect of 8-Br cGMP treatment on CCh-induced Ca^2+ release: 10 μM 8-Br cGMP, threshold CCh; for Ca^2+ release after PKG activation: S2 + InsP3R-1 constructs, Table 2
# Experimental: Transfected DT-40 3ko cells were washed once in a HEPES-buffered physiological saline solution (HEPES-PSS) containing (in mM) 5.5 glucose, 137 NaCl, 0.56 MgCl2, 4.7 KCl, 1 Na2HPO4, 10 HEPES (pH 7.4), 1.2 CaCl2 and 1% w/v Bovine Serum Albumin. Cells were then resuspended in BSA HEPES-PSS with 1 μM Fura-2 (AM), placed on a 15 mm glass coverslip in a low volume perfusion chamber (Warner Instruments) and allowed to adhere for 30 minutes at room temperature. Cells were perfused continually for 10 minutes with HEPES-PSS before experimentation to allow Fura-2 de-esterification. A field of cells for each experiment was chosen that contained a wide range of transfection efficiency based upon the intensity of red fluorescence emitted when excited at 560 nm. [Ca^2+]i imaging was performed essentially as previously described using an inverted epifluorescence Nikon microscope with a 40× oil immersion objective lens (numerical aperture, 1.3). Cells were excited alternately with light at 340 and 380 nm (±10 mn bandpass filters, Chroma) using a monochrometer (TILL Photonics). Fluorescence images were captured and digitized with a digital camera driven by TILL Photonics software. Images were captured every 2 seconds with an exposure of 35 ms and no binning. 340/380 ratio images were calculated online and stored immediately to hard disk.
# The effects of treatment were determined by normalizing the peak change in fluorescence ratio by stimulation following forskolin or 8-Br cGMP exposure to that of stimulation in control HEPES-PSS. Thus, pooled data represents a normalized fold increase over control for the treated trial. Two tailed heteroscedastic t-tests with P values<0.05 were considered to have statistical significance.
# Similar experiments were performed to assess the effects on Ca^2+ release of phosphorylating InsP3R-1 with PKG. Cells transfected with S2^+ InsP3R-1 together with M3 receptor and HcRed were stimulated with low, threshold concentrations of CCh (25-50 nM) followed by a 10 min treatment with 10 μM 8-Br cGMP, a specific activator of PKG [48]. […] In a similar fashion to PKA activation, this was manifested as an increase in the CCh-induced initial peak (FIG. 4A and pooled data FIG. 4E).
# The effects of treatment were determined by normalizing the peak change in fluorescence ratio by stimulation following forskolin or 8-Br-cGMP exposure to that of stimulation in control HEPES-PSS. Thus, pooled data represent a normalized fold increase over control for the treated trial. In all cases where statistical significance is indicated, two-tailed heteroscedastic t tests were performed. P values<0.05 were considered to indicate statistical significance and are denoted by an asterisk in the figures.
# Despite these differences, experiments were performed to define further the phosphorylation sites important for regulation of Ca^2+ release by PKG. […] In contrast, in cells expressing S2+SE no effect on CCh-induced Ca^2+ release following activation of PKG was observed (FIG. 23C and pooled data in FIG. 23D).
# S2− InsP3R-1 [1] = experiment: Ca2+ oscillations after α-IgM antibody stimulation of Dt-40 3ko cells expressing S2− constructs; settings: for Ca^2+ signal pattern: 250 ng/ml α-IgM antibody (threshold)
# Description: Cells transfected with WT and mutant S2− isoforms were stimulated with varying concentrations of an α-IgM antibody (Southern Biotechnology Associates, Inc., Birmingham, Ala.). Infrequent Ca^2+ oscillations were produced presumably through B cell receptor cross-linking, activation of phospholipase C-γ, and subsequent production of InsP3.
# In many nonelectrically excitable cell types, the physiological mode of Ca^2+ signaling is through the generation of Ca^2+ oscillations (1, 108). Moreover, it is a generally held view that the spatial and temporal properties of Ca^2+ oscillations make an important contribution to defining the fidelity and specificity of Ca^2+ signaling. In many current models addressing the mechanism underlying Ca^2+ oscillations, a key feature is the regulation of Ca^2+ release through InsP3R. Experiments were then designed to assess the consequences of InsP3R-1 phosphorylation (expressed in isolation) on the initiation and generation of Ca^2+ oscillations. An α-IgM antibody was chosen to stimulate and to initiate Ca^2+ oscillations through activation of the endogenous B cell receptor, phospholipase C-γ activation, and the formation of InsP3. Dt-40 3ko cells expressing either S2−WT or S2−EE to mimic PKA phosphorylation of the InsP3R-1 were stimulated with various concentrations of α-IgM antibody as illustrated by the selection of representative traces in FIG. 24. […] This latter observation presumably reflects the fact that the frequency of oscillations is primarily defined by mechanisms such as Ca^2+ feedback (109) rather than the absolute sensitivity of the InsP3R-1 to InsP3 within a defined range. […] Given the almost ubiquitous expression of various forms of InsP3R-1, this is likely a generally important phenomenon. […] These include modulation of InSP3 binding, an idea supported by measurements of InsP3R binding in hepatocytes (112) (presumably S2− InsP3R-1 and InsP3R-2). In these studies the apparent affinity of InsP3 binding was enhanced ˜2-fold at resting [Ca^2+], and the [Ca^2+] necessary for half-maximal stimulation of InsP3 binding was reduced. In contrast, a study of recombinant S1−S2+InsP3R-1 expressed in SF9 cells and reconstituted into lipid bilayers has reported a similar increase in InsP3R sensitivity to InsP3 but that the bell-shaped Ca^2+ sensitivity of channel opening is not altered following phosphorylation of the InsP3R-1 (23). These findings indicate that modulation of the Ca^2+ sensitivity of channel activity is unlikely to account for the increased apparent sensitivity of the receptor, at least in this form of the InsP3R-1. There are a number of alternative mechanisms for altering InsP3R-1 sensitivity are conceivable. For example, phosphorylation of the receptor could alter the gating of the channel directly. In addition, phosphorylation might secondarily modulate the receptor by regulation of the association of regulatory factors such as proteins or adenine nucleotides (113-115).
# S2− InsP3R-1 [2] = experiment: Potentiation of CCh-induced Ca2+ release after PKA activation (forskolin), S2− InsP3R-1 constructs in DT-40 3ko cells; settings: low affinity indicator Fura-2-FF
substance,measurement,setting,value
"S2+ES: S2+ InsP3R-1, long splice variant with S1589E",effect of 8-Br cGMP treatment on CCh-induced Ca^2+ release,S2+ InsP3R-1,markedly potentiated
same,Ca^2+ release after PKG activation,S2+ InsP3R-1,enhanced
"S2+SE: phosphomimetic S2+ InsP3R-1, long splice variant of S1755E",effect of 8-Br cGMP treatment on CCh-induced Ca^2+ release,S2+ InsP3R-1,no effect; also recorded: no potentiation
same,Ca^2+ release after PKG activation,S2+ InsP3R-1,no change
S2−EE: phosphomimetic S1589E/S1755E mutant of the short splice variant,Ca^2+ signal pattern,S2− InsP3R-1 [1],repetitive Ca^2+ transients following a much shorter latency; also recorded: multiple Ca^2+ transients
same,latency before the increase in Ca^2+ versus S2−WT,S2− InsP3R-1 [1]; 500 ng/ml α-IgM antibody,significantly shorter
same,magnitude of the initial transient versus WT,S2− InsP3R-1 [1]; 500 ng/ml α-IgM antibody,significantly larger
same,"latency, frequency or initial peak magnitude versus S2−WT",S2− InsP3R-1 [1]; 1 μg/ml α-IgM antibody,indistinguishable
"S2−WT: wild-type rat type-1 InsP3 receptor, peripheral short S2− splice variant (SEQ ID NO: 17)",Ca^2+ signal pattern,S2− InsP3R-1 [1],single small increase in [Ca^2+]i after a long latency; also recorded: single Ca^2+ transient after a long latency
same,fold potentiation of CCh-induced Ca^2+ release by forskolin,S2− InsP3R-1 [2],~4.5 fold
